Reference: patent publication US10195156B2, “Compounds and compositions for intracellular delivery of agents” (ModernaTX, Inc., priority 2015, dated 2019)

Assays:
[1] = tested on: Luc expression; assay: Luc expression in CD-1 mice (AUC relative to MC3); type: in vivo; settings: Table 7c
Method: FIG. 15 is a graph summarizing luciferase expression levels at 6 h after administration of nanoparticle compositions containing compounds of the disclosure to CD-1 mice at a dose of 0.5 mpk. Total light flux values were acquired via body luminescent imaging (BLI) 6 h after administration. In this Figure, the numbers 1-7 and 10 refer to the compositions containing Compounds 4-10 and MC3 respectively.
(§1) In contrast, hEPO expression in rats induced by administration of a nanoparticle composition including a compound according to one of formulae (I), (Ia1)-(Ia6), (Ib), (II), (IIa), (III), and (IIIa) was substantially […] than that measured for MC3. […] Table 7c and 7d show additional protein expressions and clearance data from compositions with various compounds disclosed herein as compared to with MC3.

[2] = Particle size and polydispersity index of nanoparticle compositions (Zetasizer Nano ZS); type: physicochemical
Method in brief: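 Nanoparticle compositions are diluted in 1×PBS, then size and polydispersity index are read on a Zetasizer Nano ZS instrument.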

[3] = Lipid clearance: % dose remaining in mouse liver 6 h and 24 h after administration of nanoparticle compositions; type: in vivo, CD-1 mice; settings: Table 7c
From the text: as §1

[4] = Encapsulation efficiency of RNA (QUANT-IT RIBOGREEN RNA assay); type: physicochemical
Method in brief: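 Nanoparticle samples diluted to ~5 μg/mL RNA in TE buffer (pH 7.5), incubated with or without 2% Triton X-100 solution at 37 °C for 15 min, then RiboGreen added. Fluorescence read at ~480/520 nm, blank-subtracted; free RNA % = intact over Triton-disrupted signal.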

[5] = tested on: LDL-c; assay: LDL levels in LDLr−/− mice after mRNA encoding the LDL receptor; type: in vivo, LDLR knockout mice; settings: Mus musculus; Table 7b; LDLr−/− mice, 0.5 mpk, LDLr; read-out: LDL levels lipid/untreated LDLr−/− mice 0.5 mpk, LDLr
[6] = pKa of nanoparticle compositions; type: physicochemical; settings: Table 1; rows without footnote mark
[7] = Table 1, rows without footnote mark
[8] = Table 1, rows without footnote mark (lipid:DOPE:cholesterol:PEG-DMG 40:20:38.5:1.5, Luc mRNA; MC3 standard formulation)

PDI ([2]; Table 1b)	Size (nm) ([2]; Table 1b)	% Dose Remaining 6 hr [3]	% Dose Remaining 24 hr [3]	EE (%) ([4]; Table 1b)	PDI [2, 7]	Size (nm) [2, 8]	pKa [6]	EE (%) [4, 7]	SMILES	AUC (p/s*h) [1]	response vs control in vivo at 0.5 mg/kg [5]
0.23	105.7 nm	21.18%	15.98%	98.8%	–	–	–	–	CCCCCCCCCN(CCCCC(=O)OCCCC)CCC1CCN(C(=O)CN(CCCCCCCCC)CCN(CCCCCCCCC)CCCCCCCCC)CC1 [Compound 60, Butyl 5-((2-(1-(N-(2-(dinonylamino)ethyl)-N-nonylglycyl)piperidin-4-yl)ethyl)(nonyl)amino)pentanoate]	2.84E+11 p/s*h	–
0.23	86.8 nm	1.31%	0.13%	99.1%	–	–	–	–	CCCCCCCCCN(CCCOC(=O)CCCCC)CCC1CCN(C(=O)CN(CCCCCCCCC)CCN(CCCCCCCCC)CCCCCCCCC)CC1 [Compound 61, 3-((2-(1-(N-(2-(Dinonylamino)ethyl)-N-nonylglycyl)piperidin-4-yl)ethyl)(nonyl)amino)propyl hexanoate]	4.65E+11 p/s*h	–
–	–	–	–	–	0.160	81.4 nm	6.62	98.9%	CCCCCCCCCCCCN(CCCCCCCCCCCC)CCN(CCCCCCCCC)CC(=O)N1CCN(C(=O)CN(CCCCCCCCC)CCCCCCCCC)CC1 [Compound 6, 2-((2-(Didodecylamino)ethyl)(nonyl)amino)-1-(4-(dinonylglycyl)piperazin-1-yl)ethan-1-one]	–	91%
–	–	–	–	–	0.140	85.1 nm	7.01	98.1%	CCCCCCCCCCCCN(CCN(CCCCCCCCC)CCCCCCCCC)CC(=O)N1CCN(C(=O)CN(CCCCCCCCC)CCCCCCCCC)CC1 [Compound 5, 2-(Dinonylamino)-1-(4-(N-(2-(dinonylamino)ethyl)-N-dodecylglycyl)piperazin-1-yl)ethan-1-one]	–	47%
0.22	102.5 nm	7.06%	6.40%	92.7%	–	–	–	–	CCCCCCCCCN(CCCCCCCCC)CCN(CCCCCCCCC)CC(=O)N1CCN(C(=O)CN(CCCC(=O)OCCCCC)CCCC(=O)OCCCCC)CC1 [Compound 72, Dipentyl 4,4′-((2-(4-(N-(2-(dinonylamino)ethyl)-N-nonylglycyl)piperazin-1-yl)-2-oxoethyl)azanediyl)dibutyrate]	6.53E+10 p/s*h	–
0.23	103.0 nm	1.35%	0.77%	82.8%	–	–	–	–	CCCCCCCCCN(CCCCCCCCC)CCN(CCCCCCCCC)CC(=O)N1CCN(C(=O)CN(CCCCCCCCC)CCCCCCC(=O)OCC)CC1 [Compound 53, Ethyl 7-((2-(4-(N-(2-(dinonylamino)ethyl)-N-nonylglycyl)piperazin-1-yl)-2-oxoethyl)(nonyl)amino)heptanoate]	9.22E+09 p/s*h	–
–	–	–	–	–	0.130	85.1 nm	6.94	99.1%	CCCCCCCCCCCCN(CCCCCCCCCCCC)CCN(CCCCCCCCCCCC)CC(=O)N1CCN(C(=O)CN(CCCCCCCCC)CCCCCCCCC)CC1 [Compound 7, 2-((2-(Didodecylamino)ethyl)(dodecyl)amino)-1-(4-(dinonylglycyl)piperazin-1-yl)ethan-1-one]	–	63%
0.23	112.8 nm	1.37%	0.61%	98.9%	–	–	–	–	CCCCCCCCCN(CCCCCCC(=O)OCC)CCC1CCN(C(=O)CN(CCCCCCCCC)CCN(CCCCCCCCC)CCCCCCCCC)CC1 [Compound 58, Ethyl 7-((2-(1-(N-(2-(dinonylamino)ethyl)-N-nonylglycyl)piperidin-4-yl)ethyl)(nonyl)amino)heptanoate]	1.38E+11 p/s*h	–
–	–	–	–	–	0.170	78.0 nm	6.76	99.5%	CCCCCCCCCCCCN(CCCCCCCCCCCC)CC(=O)N1CCN(C(=O)CN(CCCCCCCCCCCC)CCN(CCCCCCCCC)CCCCCCCCC)CC1 [Compound 9, 2-(Didodecylamino)-1-(4-(N-(2-(dinonylamino)ethyl)-N-dodecylglycyl)piperazin-1-yl)ethan-1-one]	–	87%
0.23	119.5 nm	2.58%	1.60%	95.2%	–	–	–	–	CCCCCCCCCN(CCCCCCCCC)CCN(CCCCCCCCC)CC(=O)N1CCN(C(=O)CN(CCCCCCCCC)CCCCC(=O)OCCCC)CC1 [Compound 55, Butyl 5-((2-(4-(N-(2-(dinonylamino)ethyl)-N-nonylglycyl)piperazin-1-yl)-2-oxoethyl)(nonyl)amino)pentanoate]	2.00E+10 p/s*h	–
0.23	104.7 nm	6.99%	5.03%	98.6%	–	–	–	–	CCCCCCCCCN(CCCCCC(=O)OCCC)CCC1CCN(C(=O)CN(CCCCCCCCC)CCN(CCCCCCCCC)CCCCCCCCC)CC1 [Compound 59, Propyl 6-((2-(1-(N-(2-(dinonylamino)ethyl)-N-nonylglycyl)piperidin-4-yl)ethyl)(nonyl)amino)hexanoate]	1.19E+11 p/s*h	–
–	–	–	–	–	0.110	83.3 nm	6.87	98.5%	CCCCCCCCCCCCN(CCCCCCCCCCCC)CC(=O)N1CCN(C(=O)CN(CCCCCCCCC)CCN(CCCCCCCCC)CCCCCCCCC)CC1 [Compound 8, 2-(Didodecylamino)-1-(4-(N-(2-(dinonylamino)ethyl)-N-nonylglycyl)piperazin-1-yl)ethan-1-one]	–	66%
0.23	101.9 nm	0.88%	0.24%	98.8%	–	–	–	–	CCCCCCCCCN(CCCCCCCC(=O)OC)CCC1CCN(C(=O)CN(CCCCCCCCC)CCN(CCCCCCCCC)CCCCCCCCC)CC1 [Compound 57, Methyl 8-((2-(1-(N-(2-(dinonylamino)ethyl)-N-nonylglycyl)piperidin-4-yl)ethyl)(nonyl)amino)octanoate]	1.21E+11 p/s*h	–
–	–	–	–	–	0.130	81.3 nm	6.58	99.2%	CCCCCCCCCCCCN(CCCCCCCCCCCC)CCN(CCCCCCCCC)CC(=O)N1CCN(C(=O)CN(CCCCCCCCCCCC)CCCCCCCCCCCC)CC1 [Compound 10, 2-(Didodecylamino)-1-(4-(N-(2-(didodecylamino)ethyl)-N-nonylglycyl)piperazin-1-yl)ethan-1-one]	–	98%
0.23	93.0 nm	5.18%	4.77%	96.9%	–	–	–	–	CCCCCCCCCN(CCCCCCCCC)CCN(CCCCCCCCC)CC(=O)N1CCN(C(=O)CN(CCCCCCCCC)CCCCCC(=O)OCCC)CC1 [Compound 54, Propyl 6-((2-(4-(N-(2-(dinonylamino)ethyl)-N-nonylglycyl)piperazin-1-yl)-2-oxoethyl)(nonyl)amino)hexanoate]	1.89E+10 p/s*h	–
0.24	117.4 nm	1.21%	0.16%	99.0%	–	–	–	–	CCCCCCCCCN(CCCCCCCCC)CCN(CCCCCCCCC)CC(=O)N1CCN(C(=O)CN(CCCCCCCCC)CCCOC(=O)CCCCC)CC1 [Compound 56, 3-((2-(4-(N-(2-(Dinonylamino)ethyl)-N-nonylglycyl)piperazin-1-yl)-2-oxoethyl)(nonyl)amino)propyl Hexanoate]	1.77E+11 p/s*h	–
